From the RepoRT retention time repository

Assay: RP, Waters ACQUITY UPLC BEH C8, 100 × 2.1 mm, 1.7 µm, 55 °C, 0.6 mL/min, estimated dead time 0.37 min; A: 50% water + 25% acetonitrile + 25% isopropanol + 0.05% acetic acid + 20 µM phosphoric acid + 5 mM ammonium acetate; B: 50% acetonitrile + 50% isopropanol + 0.05% acetic acid + 5 mM ammonium acetate; gradient (min/%B) 0/1 0.1/1 2/30 11.5/90 12/99.9 12.5/99.9 12.55/65 12.65/30 12.75/1 12.95/1 13.25/1
Conditions: stereoisomer not certain

SMILES	LC retention time [min]
CCCCCCCCCCCCCCCCCCOCC(COP(=O)([O-])OCC[N+](C)(C)C)OC(=O)CCCCCCCCCCCCCCC (stereo unspecified) [PC(O-18:0/16:0)]	7.47
CCCCCCCCCCCCCC=CC(O)C(CO)NC(=O)CCCCCCCCCCCCCCCCC (stereo unspecified) [Cer(d18:1/18:0)]	7.19
CCCCCCCCCCCCCC=CC(O)C(CO)NC(=O)CCCCCCCCCCCCCCC (stereo unspecified) [Cer(d18:1/16:0)]	6.5
CCCCCCCCCCCCCCCCCC(=O)OCC(COP(=O)([O-])OCC[N+](C)(C)C)OC(=O)CCCCCCCCCCCCCCCCC (stereo unspecified) [PC(18:0/18:0)]	7.67
CCCCCCCCCCCCCCCCC(=O)OCC(O)COP(=O)([O-])OCC[N+](C)(C)C (stereo unspecified) [LPC(17:0/0:0)]	2.14
CCCCCCCCCCCCCCCCOCC(COP(=O)([O-])OCC[N+](C)(C)C)OC(=O)CCCCCCCCCCCCCC (stereo unspecified) [PC(O-16:0/15:0)]	6.47
CCCCCCCCCCCCCC=CC(O)C(COP(=O)([O-])OCC[N+](C)(C)C)NC(=O)CCCCCCCCCCCCCCC (stereo unspecified) [SM(d18:1/16:0)]	5.68
CCCCCCCCCCCCCCCCCCCC(=O)OCC(O)COP(=O)([O-])OCC[N+](C)(C)C (stereo unspecified) [LPC(20:0/0:0)]	3.02
CC(C=CC=C(C)C=CC1=C(C)CCCC1(C)C)=CC=CC=C(C)C=CC=C(C)C=CC1=C(C)CC(O)CC1(C)C (stereo not drawn) [Beta-cryptoxanthin]	6.41
CCCCCCCCCCCC=CC(O)C(CO)NC(=O)CCCCCCCCCCCCCCCCCCCCC (stereo unspecified) [Cer(d16:1/22:0)]	7.93
CC(C)=CCCC(C)=CC=CC(C)=CC=CC(C)=CC=CC=C(C)C=CC=C(C)C=CC1=C(C)CCCC1(C)C [Gamma-carotene]	8.22
CC1=CCCC(C)(C)C1/C=C/C(C)=C/C=C/C(C)=C/C=C/C=C(C)/C=C/C=C(C)/C=C/C1=C(C)CCCC1(C)C (stereo not drawn) [Alpha-carotene]	8.56
CCCCCCCCCCCCCCCCOCC(O)COP(=O)([O-])OCC[N+](C)(C)C (stereo unspecified) [LPC(O-16:0/0:0)]	2.09
CCCCCCCCCCCC=CC(O)C(CO)NC(=O)CCCCCCCCCCCCCCCCCCCCCCC (stereo unspecified) [Cer(d16:1/24:0)]	8.54
CCCCCCCCCCCC=CC(O)C(COP(=O)([O-])OCC[N+](C)(C)C)NC(=O)CCCCCCCCCCCCCCCCCCCCCCC (stereo unspecified) [SM(d16:1/24:0)]	7.9
CCCCCCCCCCCCCC=CC(O)C(CO)NC(=O)CCCCCCCCCCCCCCCCCCC (stereo unspecified) [Cer(d18:1/20:0)]	7.86
CCCCCCCCCCCCCC(=O)OC(CO)COP(=O)([O-])OCC[N+](C)(C)C (stereo unspecified) [LPC(0:0/14:0)]	1.27
CCCCCCCCCCCCCCCCCC(=O)OCC(O)COP(=O)([O-])OCC[N+](C)(C)C (stereo unspecified) [LPC(18:0/0:0)]	2.42
CCCCCCCCCCCC=CC(O)C(CO)NC(=O)CCCCCCCCCCCCCCCCCCC (stereo unspecified) [Cer(d16:1/20:0)]	7.27
CCCCCCCCCCCCCCCCCCCCCCCCCC(=O)OC(CC(=O)[O-])C[N+](C)(C)C (stereo unspecified) [Hexacosanoylcarnitine CAR(26:0)]	5.15
CC(C)CCCC(C)C1CCC2C3CC=C4CC(O)CCC4(C)C3CCC12C (stereo unspecified) [Cholesterol]	4.54
CCCCCCCCCCCCCCCCCCC(=O)OCC(O)COP(=O)([O-])OCC[N+](C)(C)C (stereo unspecified) [LPC(19:0/0:0)]	2.7

SMILES	LC retention time [min]
CC(C=CC1=C(C)CCCC1(C)C)=CC=CC(C)=CCO [Retinol]	2.3
CCCCCCCCCCCCCCC=CC(O)C(COP(=O)([O-])OCC[N+](C)(C)C)NC(=O)CCCCCCCCCCCCCCCCC (stereo unspecified) [SM(d19:1/18:0)]	6.66
Cc1cc(O)cc2c1OC(C)(CCCC(C)CCCC(C)CCCC(C)C)CC2 (stereo unspecified) [Delta-Tocopherol]	5.02
CCCCCCCCCCCCCCCCCCCCCCCC(=O)OC(CC(=O)[O-])C[N+](C)(C)C (stereo unspecified) [Tetracosanoylcarnitine CAR(24:0)]	4.34
CCCCCCCCCCCCCCCC(=O)OC(CC(=O)[O-])C[N+](C)(C)C (stereo unspecified) [Palmitoylcarnitine CAR(16:0)]	1.75
CCCCCCCCCCCCCCCCC(=O)OC(COC(=O)CCCCCCCCCCCCCCC)COP(=O)([O-])OCC[N+](C)(C)C (stereo unspecified) [PC(16:0/17:0)]	6.63
CCCCCCCCCCCCCCCCC=COCC(O)COP(=O)([O-])OCC[N+](C)(C)C (stereo unspecified) [LPC(P-18:0/0:0)]	2.65
CCCCCCCCCCCC(=O)OC(CC(=O)[O-])C[N+](C)(C)C (stereo unspecified) [Lauroylcarnitine CAR(12:0)]	0.876
C=C1C=CCC(C)(C)C1C=CC(C)=CC=CC(C)=CC=CC=C(C)C=CC=C(C)C=CC1=C(C)CC(O)CC1(C)C (stereo unspecified) [Anhydrolutein I]	5.77
CCCCCCCCCCCCCCCC(=O)OCC(COP(=O)([O-])OCC[N+](C)(C)C)OC(=O)CCCCCCCCCCCCCCC (stereo unspecified) [PC(16:0/16:0)]	6.38
CCCCCCCCCCCCCC=CC(O)C(COC1OC(CO)C(OC2OC(CO)C(O)C(O)C2O)C(O)C1O)NC(=O)CCCCCCCCCCCCCCC (stereo unspecified) [LacCer(d18:1/16:0)]	5.75
CCCCCCCCCCCCCC(=O)OCC(O)COP(=O)([O-])OCC[N+](C)(C)C (stereo unspecified) [LPC(14:0/0:0)]	1.36
CCCCCCCCCCCCCCCC(=O)OC(CO)COP(=O)([O-])OCC[N+](C)(C)C (stereo unspecified) [LPC(0:0/16:0)]	1.75
CCCCCCCCCCCCCC=CC(O)C(COP(=O)([O-])OCC[N+](C)(C)C)NC(=O)CCCCCCCCCCCCCCCCCCCCCCC (stereo unspecified) [SM(d18:1/24:0)]	8.4
CC1=C(/C=C/C(C)=C/C=C/C(C)=C/C=C/C=C(C)/C=C/C=C(C)/C=C/C2=C(C)CCCC2(C)C)C(C)(C)CCC1 [Beta-carotene]	8.56
CCCCCCCCCCCCCCCCOCC(COP(=O)([O-])OCC[N+](C)(C)C)OC(=O)CCCCCCCCCCCCCCC (stereo unspecified) [PC(O-16:0/16:0)]	6.81
CCCCCCCCCCCCCCCCCC(=O)OC(CC(=O)[O-])C[N+](C)(C)C (stereo unspecified) [Stearoylcarnitine CAR(18:0)]	2.3
CCCCCCCCCCCCCC=CC(O)C(COP(=O)([O-])OCC[N+](C)(C)C)NC(=O)CCCCCCCCCCCCCCCCCCCCCC (stereo unspecified) [SM(d18:1/23:0)]	8.1
CCCCCCCCCCCCCCCCCC(=O)OC(CO)COP(=O)(O)OCCN (stereo unspecified) [LPE(0:0/18:0)]	2.38
CCCCCCCCCCCCCCC=COCC(O)COP(=O)([O-])OCC[N+](C)(C)C (stereo unspecified) [LPC(P-16:0/0:0)]	2.09
CCCCCCCCCCCCCCC=CC(O)C(COP(=O)([O-])OCC[N+](C)(C)C)NC(=O)CCCCCCCCCCCCCCC (stereo unspecified) [SM(d19:1/16:0)]	5.95

More lines, now with the values ahead:

LC retention time [min]	SMILES
9	CCCCCCCCCCCCCC=CC(O)C(CO)NC(=O)CCCCCCCCCCCCCCCCCCCCCCC (stereo unspecified) [Cer(d18:1/24:0)]
6.41	CCCCCCCCCCCCCC=CC(O)C(COP(=O)([O-])OCC[N+](C)(C)C)NC(=O)CCCCCCCCCCCCCCCCC (stereo unspecified) [SM(d18:1/18:0)]
4.52	CCCCCCCCCCCCCCCCCCCCCCCC(=O)OCC(O)COP(=O)([O-])OCC[N+](C)(C)C (stereo unspecified) [LPC(24:0/0:0)]
0.462	CCCCCCCC(=O)OC(CC(=O)O)C[N+](C)(C)C (stereo unspecified) [Octanoylcarnitine CAR(8:0)]
2.66	CCCCCCCCCCCCCCCCCCOCC(O)COP(=O)([O-])OCC[N+](C)(C)C (stereo unspecified) [LPC(O-18:0/0:0)]
8.61	CCCCCCCCCCCCCCCCCCCCCC(=O)NC(CO)C(O)CCCCCCCCCCCCCCC (stereo unspecified) [Cer(d18:0/22:0)]
2.48	CCCCCCCCCCCCCCCCCC(=O)OCC(O)COP(=O)(O)OCCN (stereo unspecified) [LPE(18:0/0:0)]
5.94	CCCCCCCCCCCCCCCC(=O)NC(COP(=O)([O-])OCC[N+](C)(C)C)C(O)CCCCCCCCCCCCCCC (stereo unspecified) [SM(d18:0/16:0)]
8.28	CC(C)=CCCC(C)=CCCC(C)=CC=CC(C)=CC=CC=C(C)C=CC=C(C)CCC=C(C)CCC=C(C)C [Zeta-carotene]
7.23	CCCCCCCCCCCC=CC(O)C(COP(=O)([O-])OCC[N+](C)(C)C)NC(=O)CCCCCCCCCCCCCCCCCCCCC (stereo unspecified) [SM(d16:1/22:0)]
1.87	CCCCCCCCCCCCCCCC(=O)OCC(O)COP(=O)([O-])OCC[N+](C)(C)C (stereo unspecified) [LPC(16:0/0:0)]
6.13	CCCCCCCCCCCCCCCCOCC(COP(=O)([O-])OCC[N+](C)(C)C)OC(=O)CCCCCCCCCCCCC (stereo unspecified) [PC(O-16:0/14:0)]
7.79	CCCCCCCCCCCCCC=CC(O)C(COP(=O)([O-])OCC[N+](C)(C)C)NC(=O)CCCCCCCCCCCCCCCCCCCCC (stereo unspecified) [SM(d18:1/22:0)]
3.31	CCCCCCCCCCCCCCCCCCCCOCC(O)COP(=O)([O-])OCC[N+](C)(C)C (stereo unspecified) [LPC(O-20:0/0:0)]
1.58	CCCCCCCCCCCCCCCC(=O)OCC(O)COP(=O)(O)O (stereo unspecified) [LPA(16:0/0:0)]
7.12	CCCCCCCCCCCCCC=CC(O)C(COP(=O)([O-])OCC[N+](C)(C)C)NC(=O)CCCCCCCCCCCCCCCCCCC (stereo unspecified) [SM(d18:1/20:0)]
7.6	CCCCCCCCCCCCCCCC(=O)OCC(CO)OC(=O)CCCCCCCCCCCCCCC (stereo unspecified) [DG(16:0/16:0)]
8.46	CCCCCCCCCCCCCC=CC(O)C(CO)NC(=O)CCCCCCCCCCCCCCCCCCCCC (stereo unspecified) [Cer(d18:1/22:0)]
5.97	CCCCCCCCCCCCCCCC(=O)OCC(COP(=O)([O-])OCC[N+](C)(C)C)OC(=O)CCCCCCCCCCCCCC (stereo unspecified) [PC(16:0/15:0)]
8.4	CCCCCCCCCCCCCC=CC(O)C(COC1OC(CO)C(OC2OC(CO)C(O)C(O)C2O)C(O)C1O)NC(=O)CCCCCCCCCCCCCCCCCCCCCCC (stereo unspecified) [LacCer(d18:1/24:0)]
3.74	CC(C=CC=C(C)C=CC1=C(C)CC(O)CC1(C)C)=CC=CC=C(C)C=CC=C(C)C=CC1C(C)=CC(O)CC1(C)C (stereo unspecified) [Luteine]
7.57	CCCCCCCCCCCC=CC(O)C(COP(=O)([O-])OCC[N+](C)(C)C)NC(=O)CCCCCCCCCCCCCCCCCCCCCC (stereo unspecified) [SM(d16:1/23:0)]
3.6	CC(C=CC=C(C)C=CC1=C(C)CC(O)CC1(C)C)=CC=CC=C(C)C=CC=C(C)C=CC1=C(C)CC(O)CC1(C)C (stereo unspecified) [Zeaxanthin]
